Data reported in patent US8492515B2 (priority 2008, dated 2013).
Converted amounts (≈) assume the structure as drawn. Square brackets hold non-standard residues; d marks the D form. Peptide text beside a SMILES is read from it. Ac6c = NC1(C(=O)O)CCCCC1

Key:
[1] = type: in vitro ADME, CD-1 mice
Procedure: Female CD-1 mice of 8 weeks were retroorbitally bled and 6 μg A3-APO peptide dissolved in 10 μL phosphate buffered saline (PBS) was immediately added to approximately 100 μL retrieved blood. After 30 min incubation at 37° C., the cells were removed by 10 min centrifugation at 2,000 rpm, 50 μL PBS was added to 50 μL of the plasma, followed by addition of 45 μL of 15% TCA. The rest of the analysis was done as described for the serum stability studies. Control blood was treated identically without A3-APO peptide addition. […] While the double charged ion at 2519 M/z from the serum studies could not be detected, the two serum components at 1798 and 2969 M/z and two new peaks at 2321 and 2577 M/z were present. These latter peptide species correspond to stable early degradation products.
Ex vivo blood stability studies were repeated on Chex1-Arg20 according to the protocol described above “Stability of Peptide A3-APO in Whole Blood”. […] The only degradation product that could be detected, at about one third of the peak height of the Chex1-Arg20 starting material, was at 2321 M/z, representing a fragment with the C-terminal arginine missing. Apparently this cleavage product is the Chex1-Val19 fragment observed for peptide A3-APO when the stability studies were done in blood ex vivo (see and compare with the lower panel of FIG. 2 and Table 1). […]

[2] = test system: E. coli HK101; conditions: quarter strength Mueller-Hinton broth, overnight, 37° C.
Source text: To investigate the activity of the A3-APO metabolites, Chex1-Arg20 single chain unit and an Arg7-Arg20 common cleavage fragment were synthesized and […], a true measure of potential clinical viability (Otvos et al., 2005. J. Med. Chem. 48: 5349-5359). The peptides of the invention were made on a CEM Liberty automated synthesizer with standard Fmoc-chemistry. The peptides were detached from the resin with the carboxyl terminus of the C-terminal Arg residue being in the form of an amino amide, —C(O)—NH2 (“Chex1-Arg20-NH2” and “Arg7-Arg20-NH2”), while still in the microwave chamber, and were purified by RP-HPLC. […] The biological studies carried out on chemically synthesized peptides in this example and succeeding examples were carried out on the C-terminal modified versions of the peptides wherein the C-terminal carboxylic acid function was in the form of an amide, —C(O)—NH2. […] The cell concentrations were estimated by measuring the ultraviolet absorbance at 600 nm and applying the formula cfu/mL=A600(3.8×10^8), where cfu is the number of colony-forming units. […] Cultures were then incubated at 37° C., 5% CO2 for 16-20 h without shaking, and growth inhibition was measured by recording the absorbance at 600 nm using a microplate reader. […]
Following the protocol of Example 2, minimal inhibitory concentrations of the Chex1-Arg20 peptide against selected bacteria was determined. […]

[3] = Gross necropsy of surviving mice three days post-infection; type: in vivo, CD-1 mice; conditions: 10 or 20 mg/kg ip
Procedure: As peptide drugs, such as antimicrobial peptides, are predominantly cleared through the kidneys (Klootwijk et al., 1997. J. Clin. Endocrinol. Metab. 82: 3068-3073) and the kidney functions of mice are 20-fold faster than those of humans, CD-1 female mice of 15-20 g were pretreated with 18 mg/kg cisplatin for 3 days to impair kidney clearance similar to the levels observed in humans (Mathe et al., 2006. Lab. Anim. 40: 296-300) before they were challenged intraperitoneally (ip) with 10^8 CFU per g mouse of an extended-spectrum β-lactamase producing E. coli strain (designation 5770). Four, 8 and 12 hours after challenge 10 or 20 mg/kg peptide Chex1-Arg20 or 40 mg/kg imipenem (as a positive control) were administered ip to 10 mice in each group. Imipenem is a broad spectrum β-lactam antibiotic. Prior to drug administration at all three timepoints, blood was taken from the tail vein of 3-5 mice for determining blood bacterial counts. […] Antimicrobials were administered ip 4 hours after challenge 3 times in 4 hour intervals. Blood was taken immediately before antimicrobial treatments. Numbers in parentheses indicate the number of mice with <10^3 CFU/mL. Bacterial counts were determined 10 times from different dilution of blood from 5 mice in each group in each timepoints.
The skin was smooth, and healthy liver, lungs, spleen and kidneys were registered.

[4] = test system: Escherichia coli 5770; experiment: Mouse survival after last dose, systemic infection model without cisplatin pretreatment; type: in vivo
Procedure: The survival rate and the dynamics of survival of mice after the last dose of an antibacterial peptide treatment (12 hours post-infection) were measured in a mouse model of Escherichia coli 5770 systemic infection. In this particular study, the animals were not pretreated with cisplatin. Ten animals were used in each group. […] In the control (infected, non-treated) and the imipenem treated rows, the first numbers reflect the number of surviving animals on the day of assay measuring the efficacy of the Chex1-Arg20 and the second numbers are the surviving control animals on the day of the A3-APO efficacy assay.

[5] = test system: Escherichia coli isolates
[6] = test system: Salmonella typhimurium isolates; conditions: murium isolates

CC(C)C[C@H](NC(=O)[C@H](Cc1ccc(O)cc1)NC(=O)[C@@H]1CCCN1C(=O)[C@H](CCCNC(=N)N)NC(=O)[C@@H]1CCCN1C(=O)[C@H](CCCCN)NC(=O)[C@H](CC(=O)O)NC(=O)[C@@H]1CCCN1C(=O)[C@H](CCCNC(=N)N)NC(=O)C1(N)CCCCC1)C(=O)N1CCC[C@H]1C(=O)N[C@@H](CCCNC(=N)N)C(=O)N1CCC[C@H]1C(=O)N[C@@H](CCCNC(=N)N)C(=O)N1CCC[C@H]1C(=O)N1CCC[C@H]1C(=O)N[C@@H](CCCNC(=N)N)C(=O)N1CCC[C@H]1C(=O)N[C@H](C(=O)N[C@@H](CCCNC(=N)N)C(=O)O)C(C)C [Chex1-Arg20, Chex-Arg-Pro-Asp-Lys-Pro-Arg-Pro-Tyr-Leu-Pro-Arg-Pro-Arg--Pro-Pro-Arg-Pro-Val-Arg] (H-[Ac6c]RPDKPRPYLPRPRPPRPVR-OH; N-terminus and C-terminus assumed)
peak height of the only degradation product (2321 M/z) relative to starting material [1]: about one third
MIC, E. coli HK101 [2]: 0.5 µg/mL (≈ 0.202 µM)
internal bleeding (hemolysis) [3]: no signs of internal bleeding
signs of toxicity at gross necropsy [3]: no signs of toxicity
number of surviving mice (10 animals each) ([4]; 2.5 mg/kg, 0 h after last dose): 10
number of surviving mice (10 animals each) ([4]; 2.5 mg/kg, 3 h after last dose): 7/7
number of surviving mice (10 animals each) ([4]; 2.5 mg/kg, 6 h after last dose): 7
number of surviving mice (10 animals each) ([4]; 2.5 mg/kg, 9 h after last dose): 5
number of surviving mice (10 animals each) ([4]; 2.5 mg/kg, 12 h after last dose): 4
number of surviving mice (10 animals each) ([4]; 5 mg/kg, 0 h after last dose): 9
number of surviving mice (10 animals each) ([4]; 5 mg/kg, 3 h after last dose): 9
number of surviving mice (10 animals each) ([4]; 5 mg/kg, 6 h after last dose): 8
number of surviving mice (10 animals each) ([4]; 5 mg/kg, 9 h after last dose): 6
number of surviving mice (10 animals each) ([4]; 5 mg/kg, 12 h after last dose): 5
number of surviving mice (10 animals each) ([4]; 10 mg/kg, 0 h after last dose): 10
number of surviving mice (10 animals each) ([4]; 10 mg/kg, 3 h after last dose): 10
number of surviving mice (10 animals each) ([4]; 10 mg/kg, 6 h after last dose): 10
number of surviving mice (10 animals each) ([4]; 10 mg/kg, 9 h after last dose): 9
number of surviving mice (10 animals each) ([4]; 10 mg/kg, 12 h after last dose): 5
minimal bactericidal concentrations (MBC) [5]: 2 to 32 µg/mL
minimal bactericidal concentrations (MBC) [6]: 4 µg/mL (≈ 1.62 µM)
